Experimental data published in patent publication US12509460B2 (Skyhawk Therapeutics, Inc., priority 2019, dated 2025).

Assays:
[1] = test system: mHTT protein in GM04724 (CAG 70/20) Huntington's disease patient lymphoblast cells; assay: mHTT protein assay, 2B7-MW1 assay via Mesoscale Discovery (MSD); type: cell-based, human
Outline: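 Patient lymphoblasts treated 48 h with compound from 10 μM to 0.6 nM. mHTT quantified by MSD 2B7-MW1 immunoassay, whose signal depends on polyQ expansion and HTT size. Viability measured on a replicate plate by CellTiter Glo.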

[2] = test system: SMN protein in spinal muscular atrophy (SMA) patient fibroblasts (GM03813, Coriell); assay: SMN protein assay, Mesoscale Discovery (MSD); type: cell-based, human; details: for EC50: read-out: SMN2 protein EC50
Outline: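 SMA patient fibroblasts (GM03813) seeded at 7000 cells/well and exposed to compound at 2.5 μM to 0.6 nM for 48 hours. Lysates assayed for SMN by MSD immunoassay, with absolute SMN amount calculated from a per-plate SMN standard curve (1 μg/ml to 19.5 pg/ml).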

[3] = test system: MDR1-MDCK cell monolayers; details: dog, MDCK-MDR1, 120 min, 5 μM, pH 7.4
MDR1 (P-gp) = assay: in vitro; details: dog, MDCK-MDR1, pH 7.4
MDR1 = assay: in vitro; details: dog, MDCK-MDR1, pH 7.4
[4] = GM04724 (CAG 70/20) Huntington's disease patient lymphoblasts
[5] = SMA patient fibroblasts (GM03813), 48 hours
[6] = GM04724 Huntington's disease patient lymphoblasts
[7] = SMA patient fibroblasts GM03813, 48 hours, MSD

CN(c1ccc(-c2cc3ncn(CC(F)(F)F)c(=O)c3cc2O)nn1)[C@H]1C[C@@H]2CC(F)(F)[C@H](C1)N2C (single isomer, unassigned) [Compound 110B]
mHTT protein EC50 [1, 4]: E (501 ≤ E ≤ 10.000)
SMN2 protein EC50 [2, 5]: E (501 ≤ E ≤ 10.000)
MDCK-MDR1: % Recov A-B [3]: 86%
MDCK-MDR1: % Recov B-A [3]: 93%
Papp A→B at 120 min, 5 μM (MDR1 (P-gp)): 11.7 ×10⁻⁶ cm/s
Papp B→A at 120 min, 5 μM (MDR1 (P-gp)): 47.4 ×10⁻⁶ cm/s
efflux ratio at 120 min, 5 μM (MDR1): 4

CN1[C@@H]2CC[C@H]1[C@H](F)[C@H](N(c1ccc(-c3cc4ncn(CC(F)(F)F)c(=O)c4cc3O)nn1)C1CC1)C2 (single isomer, unassigned) [Compound 111A]
mHTT protein EC50 [1, 4]: E (501 ≤ E ≤ 10.000)
SMN2 protein EC50 [2, 5]: E (501 ≤ E ≤ 10.000)
MDCK-MDR1: % Recov A-B [3]: 90%
MDCK-MDR1: % Recov B-A [3]: 83%
Papp A→B at 120 min, 5 μM (MDR1 (P-gp)): 0.89 ×10⁻⁶ cm/s
Papp B→A at 120 min, 5 μM (MDR1 (P-gp)): 44.3 ×10⁻⁶ cm/s
efflux ratio at 120 min, 5 μM (MDR1): 45

CN1[C@H]2CC[C@@H]1[C@@H](F)[C@@H](N(c1ccc(-c3cc4ncn(CC(F)(F)F)c(=O)c4cc3O)nn1)C1CC1)C2 (single isomer, unassigned) [Compound 111B]
mHTT protein EC50 [1, 4]: E (501 ≤ E ≤ 10.000)
SMN2 protein EC50 [2, 5]: E (501 ≤ E ≤ 10.000)
MDCK-MDR1: % Recov A-B [3]: 74%
MDCK-MDR1: % Recov B-A [3]: 56%
Papp A→B at 120 min, 5 μM (MDR1 (P-gp)): 0.66 ×10⁻⁶ cm/s
Papp B→A at 120 min, 5 μM (MDR1 (P-gp)): 35.9 ×10⁻⁶ cm/s
efflux ratio at 120 min, 5 μM (MDR1): 54

CN(c1ccc(-c2ccccc2O)nn1)[C@H]1C[C@@H]2CC[C@@H](N2)[C@H]1F (single isomer, unassigned) [Compound 119B]
mHTT protein EC50 [1, 4]: E (501 ≤ E ≤ 10.000)
SMN2 protein EC50 [2, 5]: E (501 ≤ E ≤ 10.000)
MDCK-MDR1: % Recov A-B [3]: 93%
MDCK-MDR1: % Recov B-A [3]: 95%
Papp A→B at 120 min, 5 μM (MDR1 (P-gp)): 6.13 ×10⁻⁶ cm/s
Papp B→A at 120 min, 5 μM (MDR1 (P-gp)): 58.2 ×10⁻⁶ cm/s
efflux ratio at 120 min, 5 μM (MDR1): 9

CN(c1ccc(-c2ccc(C(F)F)cc2O)nn1)[C@@H]1C[C@H]2CC[C@H](N2)[C@@H]1F (single isomer, unassigned) [Compound 120A]
mHTT protein EC50 [1, 4]: E (501 ≤ E ≤ 10.000)
SMN2 protein EC50 [2, 5]: E (501 ≤ E ≤ 10.000)
MDCK-MDR1: % Recov A-B [3]: 76%
MDCK-MDR1: % Recov B-A [3]: 74%
Papp A→B at 120 min, 5 μM (MDR1 (P-gp)): 4.59 ×10⁻⁶ cm/s
Papp B→A at 120 min, 5 μM (MDR1 (P-gp)): 34.8 ×10⁻⁶ cm/s
efflux ratio at 120 min, 5 μM (MDR1): 8

CN(c1ccc(-c2ccc(C(F)F)cc2O)nn1)[C@H]1C[C@@H]2CC[C@@H](N2)[C@H]1F (single isomer, unassigned) [Compound 120B]
mHTT protein EC50 [1, 4]: E (501 ≤ E ≤ 10.000)
SMN2 protein EC50 [2, 5]: E (501 ≤ E ≤ 10.000)
MDCK-MDR1: % Recov A-B [3]: 60%
MDCK-MDR1: % Recov B-A [3]: 76%
Papp A→B at 120 min, 5 μM (MDR1 (P-gp)): 5.84 ×10⁻⁶ cm/s
Papp B→A at 120 min, 5 μM (MDR1 (P-gp)): 27.3 ×10⁻⁶ cm/s
efflux ratio at 120 min, 5 μM (MDR1): 5

CN(c1ccc(-c2ccc(Oc3nccn3C)cc2O)nn1)[C@@H]1C[C@H]2CC[C@H](N2)[C@@H]1F (single isomer, unassigned) [Compound 123A]
mHTT protein EC50 [1, 4]: E (501 ≤ E ≤ 10.000)
SMN2 protein EC50 [2, 5]: E (501 ≤ E ≤ 10.000)
MDCK-MDR1: % Recov A-B [3]: 97%
MDCK-MDR1: % Recov B-A [3]: 102%
Papp A→B at 120 min, 5 μM (MDR1 (P-gp)): 0.76 ×10⁻⁶ cm/s
Papp B→A at 120 min, 5 μM (MDR1 (P-gp)): 59.7 ×10⁻⁶ cm/s
efflux ratio at 120 min, 5 μM (MDR1): 79

CN(c1ccc(-c2ccc(Oc3nccn3C)cc2O)nn1)[C@H]1C[C@@H]2CC[C@@H](N2)[C@H]1F (single isomer, unassigned) [Compound 123B]
mHTT protein EC50 [1, 4]: E (501 ≤ E ≤ 10.000)
EC50 [2, 5]: 101 to 500 nM
MDCK-MDR1: % Recov A-B [3]: 92%
MDCK-MDR1: % Recov B-A [3]: 102%
Papp A→B at 120 min, 5 μM (MDR1 (P-gp)): 0.66 ×10⁻⁶ cm/s
Papp B→A at 120 min, 5 μM (MDR1 (P-gp)): 58.7 ×10⁻⁶ cm/s
efflux ratio at 120 min, 5 μM (MDR1): 89

CN(c1ccc(-c2ccc(-n3cnc(C(=O)NC(C)(C)C)c3)cc2O)nn1)[C@@H]1C[C@H]2CC[C@H](N2)[C@@H]1F (single isomer, unassigned) [Compound 124A]
mHTT protein EC50 [1, 4]: E (501 ≤ E ≤ 10.000)
EC50 [2, 5]: 101 to 500 nM
MDCK-MDR1: % Recov A-B [3]: 78%
MDCK-MDR1: % Recov B-A [3]: 78%
Papp A→B at 120 min, 5 μM (MDR1 (P-gp)): 0.34 ×10⁻⁶ cm/s
Papp B→A at 120 min, 5 μM (MDR1 (P-gp)): 45.7 ×10⁻⁶ cm/s
efflux ratio at 120 min, 5 μM (MDR1): 133

Cc1nc2cc(-c3ccc(N(C)[C@@H]4C[C@H]5CC[C@@H]([C@@H]4F)N5C)nn3)c(O)cc2c(=O)n1CC(F)(F)F (single isomer, unassigned) [Compound 130A]
mHTT protein EC50 [1, 4]: E (501 ≤ E ≤ 10.000)
SMN2 protein EC50 [2, 5]: E (501 ≤ E ≤ 10.000)
MDCK-MDR1: % Recov A-B [3]: 105%
MDCK-MDR1: % Recov B-A [3]: 116%
Papp A→B at 120 min, 5 μM (MDR1 (P-gp)): 0.67 ×10⁻⁶ cm/s
Papp B→A at 120 min, 5 μM (MDR1 (P-gp)): 75.4 ×10⁻⁶ cm/s
efflux ratio at 120 min, 5 μM (MDR1): 113

Cc1nc2cc(-c3ccc(N(C)[C@H]4C[C@@H]5CC[C@H]([C@H]4F)N5C)nn3)c(O)cc2c(=O)n1CC(F)(F)F (single isomer, unassigned) [Compound 130B]
mHTT protein EC50 [1, 4]: E (501 ≤ E ≤ 10.000)
SMN2 protein EC50 [2, 5]: E (501 ≤ E ≤ 10.000)
MDCK-MDR1: % Recov A-B [3]: 107%
MDCK-MDR1: % Recov B-A [3]: 110%
Papp A→B at 120 min, 5 μM (MDR1 (P-gp)): 0.77 ×10⁻⁶ cm/s
Papp B→A at 120 min, 5 μM (MDR1 (P-gp)): 72.2 ×10⁻⁶ cm/s
efflux ratio at 120 min, 5 μM (MDR1): 94

Cc1nc2cc(O)c(-c3ccc(N(C)[C@@H]4C[C@H]5CC[C@H](N5)C4F)nn3)cc2o1 (stereo in doubt) [Compound 40A, 6-(6-(((1S,2R,3R,5R)-2-fluoro-8-azabicyclo[3.2.1]octan-3-yl)(methyl)amino)pyridazin-3-yl)-2-methylbenzo[d]oxazol-5-ol]
EC50 [1, 6]: 101 to 500 nM
SMN2 protein EC50 [2, 7]: E (501 ≤ E ≤ 10.000)
MDCK-MDR1: % Recov A-B [3]: 62%
MDCK-MDR1: % Recov B-A [3]: 92%
Papp A→B at 120 min, 5 μM (MDR1 (P-gp)): 3.68 ×10⁻⁶ cm/s
Papp B→A at 120 min, 5 μM (MDR1 (P-gp)): 57.9 ×10⁻⁶ cm/s
efflux ratio at 120 min, 5 μM (MDR1): 16

CN(c1ccc(-c2ccc(-n3ccnc3)cc2O)nn1)[C@H]1C[C@@H]2CC(F)(F)[C@H](C1)N2 [Compound 13B, 2-(6-(((1R,3S,5S)-6,6-difluoro-8-azabicyclo[3.2.1]octan-3-yl)(methyl)amino)pyridazin-3-yl)-5-(1H-imidazol-1-yl)phenol]
EC50 [1, 6]: 101 to 500 nM
SMN2 protein EC50 [2, 7]: E (501 ≤ E ≤ 10.000)
MDCK-MDR1: % Recov A-B [3]: 90%
MDCK-MDR1: % Recov B-A [3]: 97%
Papp A→B at 120 min, 5 μM (MDR1 (P-gp)): 9.96 ×10⁻⁶ cm/s
Papp B→A at 120 min, 5 μM (MDR1 (P-gp)): 55.7 ×10⁻⁶ cm/s
efflux ratio at 120 min, 5 μM (MDR1): 6

CCc1cn(-c2ccc(-c3ccc(N(C)[C@H]4C[C@@H]5CC(F)(F)[C@H](C4)N5)nn3)c(O)c2)cn1 [Compound 18B, 2-(6-(((1R,3S,5S)-6,6-difluoro-8-azabicyclo[3.2.1]octan-3-yl)(methyl)amino)pyridazin-3-yl)-5-(4-ethyl-1H-imidazol-1-yl)phenol]
EC50 [1, 6]: 101 to 500 nM
SMN2 protein EC50 [2, 7]: E (501 ≤ E ≤ 10.000)
MDCK-MDR1: % Recov A-B [3]: 55%
MDCK-MDR1: % Recov B-A [3]: 69%
Papp A→B at 120 min, 5 μM (MDR1 (P-gp)): 8.37 ×10⁻⁶ cm/s
Papp B→A at 120 min, 5 μM (MDR1 (P-gp)): 35.6 ×10⁻⁶ cm/s
efflux ratio at 120 min, 5 μM (MDR1): 4

CC(=O)N(C)c1ccc(-c2ccc(N(C)[C@@H]3C[C@H]4CC[C@H](N4)[C@@H]3F)nn2)c(O)c1 [Compound 35A, N-(4-(6-(((1S,2S,3R,5R)-2-fluoro-8-azabicyclo[3.2.1]octan-3-yl)(methyl)amino)pyridazin-3-yl)-3-hydroxyphenyl)-N-methylacetamide]
mHTT protein EC50 [1, 6]: E (501 ≤ E ≤ 10.000)
SMN2 protein EC50 [2, 7]: E (501 ≤ E ≤ 10.000)
MDCK-MDR1: % Recov A-B [3]: 102%
MDCK-MDR1: % Recov B-A [3]: 103%
Papp A→B at 120 min, 5 μM (MDR1 (P-gp)): 0.21 ×10⁻⁶ cm/s
Papp B→A at 120 min, 5 μM (MDR1 (P-gp)): 41 ×10⁻⁶ cm/s
efflux ratio at 120 min, 5 μM (MDR1): 197

CN(c1ccc(-c2cc3cccnc3cc2O)nn1)[C@H]1C[C@@H]2CC(F)(F)[C@H](C1)N2 [Compound 45B, 6-(6-(((1R,3S,5S)-6,6-difluoro-8-azabicyclo[3.2.1]octan-3-yl)(methyl)amino)pyridazin-3-yl)quinolin-7-ol]
mHTT protein EC50 [1, 6]: E (501 ≤ E ≤ 10.000)
SMN2 protein EC50 [2, 7]: E (501 ≤ E ≤ 10.000)
MDCK-MDR1: % Recov A-B [3]: 95%
MDCK-MDR1: % Recov B-A [3]: 111%
Papp A→B at 120 min, 5 μM (MDR1 (P-gp)): 10.2 ×10⁻⁶ cm/s
Papp B→A at 120 min, 5 μM (MDR1 (P-gp)): 45.3 ×10⁻⁶ cm/s
efflux ratio at 120 min, 5 μM (MDR1): 4
